Laboratory results as given in US10479780B2, “Aminopyrazole derivatives” (Chugai Seiyaku Kabushiki Kaisha, priority 2015, dated 2019).
Where two headings read alike, the source gives them in different places.

Columns and labels:
Type in all cases: biochemical
[1] = biological target: T1, human Yes1 enzyme (Homo sapiens, UniProt P07947); test: Yes1 enzyme inhibitory activity (time-resolved fluorometry, biotinylated peptide phosphorylation); conditions: read-out: YES_IC50
T1 construct: made in house
How it was run: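 Inhibition was expressed against a compound-free control to give IC50, using TR-FRET read-out (Eu-cryptate anti-pTyr antibody, streptavidin-XL665).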

[2] = biological target: T2, human Src enzyme (Homo sapiens, UniProt P12931); test: Src enzyme inhibitory activity (time-resolved fluorometry, biotinylated peptide phosphorylation); conditions: read-out: SRC_IC50
T2 construct: purchased Carna Biosciences, Inc. 08-173
How it was run: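 Compounds were tested for blocking tyrosine phosphorylation of a biotinylated peptide substrate by recombinant human Src. Phosphorylated product was quantified by time-resolved fluorometry using europium cryptate and XL665 conjugates, and IC50 was calculated against the compound-free control.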

[3] = biological target: T3, human Lck enzyme (Homo sapiens, UniProt P06239); test: Lck enzyme inhibitory activity (time-resolved fluorometry, biotinylated peptide phosphorylation); conditions: read-out: LCK_IC50
T3 construct: purchased Carna Biosciences, Inc. 08-170
How it was run: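 Readout pairs a europium cryptate-labelled anti-phosphotyrosine antibody with XL665-streptavidin, measured by time-resolved fluorescence. IC50 derived from percent inhibition against untreated controls.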

[4] = biotinylated peptide phosphorylation

T1 sequence (P07947 whole entry): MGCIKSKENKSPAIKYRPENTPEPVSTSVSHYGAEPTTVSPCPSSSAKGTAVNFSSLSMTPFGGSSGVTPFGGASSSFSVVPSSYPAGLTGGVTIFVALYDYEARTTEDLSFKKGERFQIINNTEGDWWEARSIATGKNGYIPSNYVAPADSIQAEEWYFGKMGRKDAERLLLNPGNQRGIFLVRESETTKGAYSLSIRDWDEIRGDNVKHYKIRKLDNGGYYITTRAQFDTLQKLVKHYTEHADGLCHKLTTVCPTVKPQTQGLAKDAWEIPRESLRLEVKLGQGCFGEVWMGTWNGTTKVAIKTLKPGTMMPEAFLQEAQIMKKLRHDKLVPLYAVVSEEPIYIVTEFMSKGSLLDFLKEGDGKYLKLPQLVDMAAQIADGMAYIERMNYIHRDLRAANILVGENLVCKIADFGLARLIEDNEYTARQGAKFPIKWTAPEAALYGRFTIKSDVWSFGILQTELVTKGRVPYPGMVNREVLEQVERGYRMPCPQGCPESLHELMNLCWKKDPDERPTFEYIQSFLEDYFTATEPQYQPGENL
T2 sequence (P12931 whole entry): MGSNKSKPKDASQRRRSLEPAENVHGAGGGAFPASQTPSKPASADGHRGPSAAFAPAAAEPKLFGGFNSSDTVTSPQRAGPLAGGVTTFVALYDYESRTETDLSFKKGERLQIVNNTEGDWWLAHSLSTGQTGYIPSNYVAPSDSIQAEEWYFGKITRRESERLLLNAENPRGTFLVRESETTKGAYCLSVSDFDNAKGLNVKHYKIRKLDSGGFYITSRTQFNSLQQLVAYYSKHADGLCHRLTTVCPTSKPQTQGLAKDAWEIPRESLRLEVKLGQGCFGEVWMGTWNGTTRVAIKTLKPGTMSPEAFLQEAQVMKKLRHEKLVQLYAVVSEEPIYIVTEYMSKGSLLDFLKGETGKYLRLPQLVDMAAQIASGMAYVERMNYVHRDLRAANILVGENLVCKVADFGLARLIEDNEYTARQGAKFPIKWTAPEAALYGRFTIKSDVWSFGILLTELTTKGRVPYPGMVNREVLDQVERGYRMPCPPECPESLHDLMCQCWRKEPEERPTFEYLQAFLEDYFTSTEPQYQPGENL
T3 sequence (P06239 whole entry): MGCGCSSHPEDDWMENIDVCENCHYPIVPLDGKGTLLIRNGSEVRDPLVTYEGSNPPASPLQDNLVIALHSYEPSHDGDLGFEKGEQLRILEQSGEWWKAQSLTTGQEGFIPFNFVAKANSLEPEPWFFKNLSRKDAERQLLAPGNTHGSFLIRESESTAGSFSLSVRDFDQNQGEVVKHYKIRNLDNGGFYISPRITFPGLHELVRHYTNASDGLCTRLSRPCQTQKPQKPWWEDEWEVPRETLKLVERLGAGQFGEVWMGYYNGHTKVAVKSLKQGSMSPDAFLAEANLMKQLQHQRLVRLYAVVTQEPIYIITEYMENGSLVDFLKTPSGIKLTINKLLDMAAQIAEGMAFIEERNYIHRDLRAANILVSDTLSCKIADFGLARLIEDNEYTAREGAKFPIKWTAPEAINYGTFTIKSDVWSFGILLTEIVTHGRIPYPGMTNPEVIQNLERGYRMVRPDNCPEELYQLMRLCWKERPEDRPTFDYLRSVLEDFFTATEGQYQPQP

Row | IC50 [1, 4] | IC50 [2, 4] | IC50 [3, 4] | IC50 [1] | IC50 [2] | IC50 [3] | SMILES
1 | 5.9 nM | 59 nM | 10 nM |  |  |  | Cc1cc(Oc2ccccc2F)ncc1-n1ncc(C(=O)c2cc3cc(OC(F)F)c(N4CCOCC4)cc3[nH]2)c1N [Example 4-25-022, [5-amino-1-[6-(2-fluorophenoxy)-4-methylpyridin-3-yl]pyrazol-4-yl]-[5-(difluoromethoxy)-6-morpholin-4-yl-1H-indol-2-yl]methanone]
2 | 6.3 nM | 86 nM | 16 nM |  |  |  | Cc1cc(Oc2c(F)cccc2F)ncc1-n1ncc(C(=O)c2cc3cc(OC(F)F)c(N4CCOCC4)cc3[nH]2)c1N [Example 4-25-023, [5-amino-1-[6-(2,6-difluorophenoxy)-4-methylpyridin-3-yl]pyrazol-4-yl]-[5-(difluoromethoxy)-6-morpholin-4-yl-1H-indol-2-yl]methanone]
3 | 0.69 nM | 55 nM | 29 nM |  |  |  | Cc1cc(Oc2ccccc2F)ccc1-n1ncc(C(=O)c2cc3cc(OC(F)F)c(N4CCOCC4)cc3[nH]2)c1N [Example 4-25-024, [5-amino-1-[4-(2-fluorophenoxy)-2-methylphenyl]pyrazol-4-yl]-[5-(difluoromethoxy)-6-morpholin-4-yl-1H-indol-2-yl]methanone]
4 | 17 nM | 80 nM | 31 nM |  |  |  | Cc1cc(Oc2ccccc2F)cc(F)c1-n1ncc(C(=O)c2cc3cc(OC(F)F)c(N4CCOCC4)cc3[nH]2)c1N [Example 4-25-025, [5-amino-1-[2-fluoro-4-(2-fluorophenoxy)-6-methylphenyl]pyrazol-4-yl]-[5-(difluoromethoxy)-6-morpholin-4-yl-1H-indol-2-yl]methanone]
5 | 0.92 nM | 12 nM | 1.6 nM |  |  |  | Cc1cc(Oc2ccccc2F)ncc1-n1ncc(C(=O)c2cc3cc(OCC(F)F)c(N4CCC(N5CCOCC5)CC4)cc3[nH]2)c1N [Example 4-25-026, {5-amino-1-[6-(2-fluorophenoxy)-4-methylpyridin-3-yl]pyrazol-4-yl}-[5-(2,2-difluoroethoxy)-6-(4-morpholin-4-ylpiperidin-1-yl)-1H-indol-2-yl]methanone]
6 | 0.8 nM | 23 nM | 2.1 nM |  |  |  | Cc1cc(Oc2c(F)cccc2F)ncc1-n1ncc(C(=O)c2cc3cc(OCC(F)F)c(N4CCC(N5CCOCC5)CC4)cc3[nH]2)c1N [Example 4-25-027, [5-amino-1-[6-(2,6-difluorophenoxy)-4-methylpyridin-3-yl]pyrazol-4-yl]-[5-(2,2-difluoroethoxy)-6-(4-morpholin-4-ylpiperidin-1-yl)-1H-indol-2-yl]methanone]
7 | 0.94 nM | 13 nM | 4.9 nM |  |  |  | Cc1cc(Oc2ccccc2F)ccc1-n1ncc(C(=O)c2cc3cc(OCC(F)F)c(N4CCC(N5CCOCC5)CC4)cc3[nH]2)c1N [Example 4-25-028, [5-amino-1-[4-(2-fluorophenoxy)-2-methylphenyl]pyrazol-4-yl]-[5-(2,2-difluoroethoxy)-6-(4-morpholin-4-ylpiperidin-1-yl)-1H-indol-2-yl]methanone]
8 | 2.4 nM | 21 nM | 6.8 nM |  |  |  | Cc1cc(Oc2ccccc2F)cc(F)c1-n1ncc(C(=O)c2cc3cc(OCC(F)F)c(N4CCC(N5CCOCC5)CC4)cc3[nH]2)c1N [Example 4-25-029, [5-amino-1-[2-fluoro-4-(2-fluorophenoxy)-6-methylphenyl]pyrazol-4-yl]-[5-(2,2-difluoroethoxy)-6-(4-morpholin-4-ylpiperidin-1-yl)-1H-indol-2-yl]methanone]
9 | 2.6 nM | 38 nM | 9.1 nM |  |  |  | Cc1cc(Oc2ccccc2F)ncc1-n1ncc(C(=O)c2cc3cc(OC(F)F)c(N4CCC(N5CCOCC5)CC4)cc3[nH]2)c1N [Example 4-25-030, [5-amino-1-[6-(2-fluorophenoxy)-4-methylpyridin-3-yl]pyrazol-4-yl]-[5-(difluoromethoxy)-6-(4-morpholin-4-ylpiperidin-1-yl)-1H-indol-2-yl]methanone]
10 | 1.9 nM | 48 nM | 7.2 nM |  |  |  | Cc1cc(Oc2c(F)cccc2F)ncc1-n1ncc(C(=O)c2cc3cc(OC(F)F)c(N4CCC(N5CCOCC5)CC4)cc3[nH]2)c1N [Example 4-25-031, [5-amino-1-[6-(2,6-difluorophenoxy)-4-methylpyridin-3-yl]pyrazol-4-yl]-[5-(difluoromethoxy)-6-(4-morpholin-4-ylpiperidin-1-yl)-1H-indol-2-yl]methanone]
11 | 0.83 nM | 48 nM | 11 nM |  |  |  | Cc1cc(Oc2ccccc2F)ccc1-n1ncc(C(=O)c2cc3cc(OC(F)F)c(N4CCC(N5CCOCC5)CC4)cc3[nH]2)c1N [Example 4-25-032, [5-amino-1-[4-(2-fluorophenoxy)-2-methylphenyl]pyrazol-4-yl]-[5-(difluoromethoxy)-6-(4-morpholin-4-ylpiperidin-1-yl)-1H-indol-2-yl]methanone]
12 | 1.5 nM | 26 nM | 7.6 nM |  |  |  | Cc1cc(Oc2ccccc2F)ccc1-n1ncc(C(=O)c2cc3cc(F)c(NS(=O)(=O)CC(=O)N4CCCC4)cc3[nH]2)c1N [Example 4-26-001, N-(2-(5-amino-1-(4-(2-fluorophenoxy)-2-methylphenyl)-1H-pyrazole-4-carbonyl)-5-fluoro-1H-indol-6-yl)-2-oxo-2-(pyrrolidin-1-yl)ethanesulfonamide]
13 |  |  |  | 1.1 nM | 7.6 nM | 2.9 nM | CC(C)N1CCC(c2cc3cc(C(=O)c4cnn(-c5ccc(Oc6ccccc6Cl)cc5)c4N)[nH]c3cc2F)CC1 [Example 5-1-001, [5-amino-1-[4-(2-chlorophenoxy)phenyl]pyrazol-4-yl]-[6-fluoro-5-(1-propan-2-ylpiperidin-4-yl)-1H-indol-2-yl]methanone]
14 |  |  |  | 0.87 nM | 6.1 nM | 2.2 nM | CC(C)N1CCC(c2cc3cc(C(=O)c4cnn(-c5ccc(Oc6cccc(F)c6)cc5F)c4N)[nH]c3cc2F)CC1 [Example 5-1-002, [5-amino-1-[2-fluoro-4-(3-fluorophenoxy)phenyl]pyrazol-4-yl]-[6-fluoro-5-(1-propan-2-ylpiperidin-4-yl)-1H-indol-2-yl]methanone]
15 |  |  |  | 2 nM | 26 nM | 4.7 nM | CC(C)N1CCC(c2cc3cc(C(=O)c4cnn(-c5ccc(Oc6cccc(Cl)c6)cc5F)c4N)[nH]c3cc2F)CC1 [Example 5-1-003, [5-amino-1-[4-(3-chlorophenoxy)-2-fluorophenyl]pyrazol-4-yl]-[6-fluoro-5-(1-propan-2-ylpiperidin-4-yl)-1H-indol-2-yl]methanone]
16 |  |  |  | 0.78 nM | 3.6 nM | 2.8 nM | CC(C)N1CCC(c2cc3cc(C(=O)c4cnn(-c5ccc(Oc6ccccc6F)cc5)c4N)[nH]c3cc2F)CC1 [Example 5-1-004, [5-amino-1-[4-(2-fluorophenoxy)phenyl]pyrazol-4-yl]-[6-fluoro-5-(1-propan-2-ylpiperidin-4-yl)-1H-indol-2-yl]methanone]
17 |  |  |  | 0.71 nM | 37 nM | 4.2 nM | Cc1cc(Oc2cccc(F)c2)ccc1-n1ncc(C(=O)c2cc3cc(C4CCN(C(C)C)CC4)c(F)cc3[nH]2)c1N [Example 5-1-005, [5-amino-1-[4-(3-fluorophenoxy)-2-methylphenyl]pyrazol-4-yl]-[6-fluoro-5-(1-propan-2-ylpiperidin-4-yl)-1H-indol-2-yl] methanone]
18 |  |  |  | 0.73 nM | 56 nM | 6 nM | CC(C)N1CCC(c2cc3[nH]c(C(=O)c4cnn(-c5ccc(Oc6cccc(F)c6)cc5F)c4N)cc3cc2F)CC1 [Example 5-1-006, [5-amino-1-[2-fluoro-4-(3-fluorophenoxy)phenyl]pyrazol-4-yl]-[5-fluoro-6-(1-propan-2-ylpiperidin-4-yl)-1H-indol-2-yl]methanone]
19 |  |  |  | 1.1 nM | 11 nM | 2.2 nM | CC(C)N1CCC(c2cc3[nH]c(C(=O)c4cnn(-c5ccc(Oc6ccccc6F)cc5)c4N)cc3cc2F)CC1 [Example 5-1-007, [5-amino-1-[4-(2-fluorophenoxy)phenyl]pyrazol-4-yl]-[5-fluoro-6-(1-propan-2-ylpiperidin-4-yl)-1H-indol-2-yl]methanone]
20 |  |  |  | 2.7 nM | 60 nM | 4.6 nM | CC(C)N1CCC(c2cc3[nH]c(C(=O)c4cnn(-c5ccc(Oc6cccc(Cl)c6)cc5)c4N)cc3cc2F)CC1 [Example 5-1-008, [5-amino-1-[4-(3-chlorophenoxy)phenyl]pyrazol-4-yl]-[5-fluoro-6-(1-propan-2-ylpiperidin-4-yl)-1H-indol-2-yl]methanone]
21 |  |  |  | 1.9 nM | 9.3 nM | 2.8 nM | Cc1cc(Oc2cccc(F)c2)ccc1-n1ncc(C(=O)c2cc3cc(F)c(C4CCN(C(C)C)CC4)cc3[nH]2)c1N [Example 5-1-009, [5-amino-1-[4-(3-fluorophenoxy)-2-methylphenyl]pyrazol-4-yl]-[5-fluoro-6-(1-propan-2-ylpiperidin-4-yl)-1H-indol-2-yl] methanone]
22 |  |  |  | 2.5 nM | 38 nM | 3.6 nM | CC(C)N1CCC(c2cc3[nH]c(C(=O)c4cnn(-c5ccc(Oc6cccc(Cl)c6)cc5F)c4N)cc3cc2F)CC1 [Example 5-1-010, [5-amino-1-[4-(3-chlorophenoxy)-2-fluorophenyl]pyrazol-4-yl]-[5-fluoro-6-(1-propan-2-ylpiperidin-4-yl)-1H-indol-2-yl]methanone]
